Results as given in patent US20240246902A1, “PRODRUGS OF 6-DIAZO-5-OXO-L-NORLEUCINE” (THE JOHNS HOPKINS UNIVERSITY, priority 2021, published 2024).
Converted amounts (≈) assume the structure as drawn. Like-named read-outs stand apart in the source and are kept apart here.

Experiments:
[1] = Metabolic stability in swine liver tissue homogenate; format: in vitro ADME; conditions: prodrug 20 μM, 37° C.
Protocol: (§1) The representative Compounds of the Disclosure were screened for metabolic stability in swine jejunum/liver tissue homogenates, following our previously reported methods (Zimmermann et al., J. Med. Chem., 61(9):3918-29 (2018); Tenora et al., J. Med. Chem., 62(7):3524-38 (2019)). In brief, freshly collected tissues were homogenized by probe sonication in 9× volume of 0.1 M potassium phosphate buffer over ice. Post homogenization, prodrugs were spiked at a concentration of 20 μM (in triplicate) and incubated in an orbital shaker at 37° C. for 60 min. Final concentration of DMSO in the incubations was 0.2% v/v. At each time point (0, 30, 60 min), 100 μL of sample was precipitated with 300 μL of methanol containing internal standard (IS; losartan: 0.5 μM). […] After centrifugation, 50 μL of supernatant was diluted with 50 μL of water, vortexed and submitted for analysis. Prodrug disappearance over time was measured using liquid chromatography tandem mass spectrometry (LC-MS/MS).
(§2) The processed supernatants were analyzed on a Thermo Scientific Vanquish UPLC system (equipped with Vanquish autosampler, pumps, and column compartment) hyphenated to TSQ Altis mass spectrometer (Thermo Fisher Scientific Inc., Waltham MA). […] The autosampler was operated at 4° C. […] Peak area ratios obtained from peak area counts of analyte and internal standard were used to measure the disappearance of prodrugs.

[2] = Metabolic stability in swine jejunum (gut) tissue homogenate; format: in vitro ADME; conditions: prodrug 20 μM, 37° C.
Protocol: as §1, §2

[3] = Plasma stability, plasma from CES1KO mice; conditions: CES1KO = Mouse Plasma from CES1KO mice
[4] = Plasma stability, mouse plasma; conditions: MP = Mouse Plasma

Compound | Liver stability (% remaining at 60 min) [1] [%] | solubility (Solubility) [µg/mL] | Efflux (Efflux) | Gut Stability (% remaining at 60 min) [2] [%] | Plasma Stability (% remaining at 60 min) [3] | Plasma Stability (% remaining at 60 min) [4] | Efflux (Efflux; not told)
CCCC(=O)N[C@@H](CCC(=O)C=[N+]=[N-])C(=O)OC(C)C [Compound 5b, Isopropyl (S)-2-butyramido-6-diazo-5-oxohexanoate] | 12 ± 1 | ~5000 (≈ 17.6 mM) |  |  |  |  | 
CCCCCC(=O)N[C@@H](CCC(=O)C=[N+]=[N-])C(=O)OC(C)C [Compound 5c, Isopropyl (S)-6-diazo-2-hexanamido-5-oxohexanoate] | 0 ± 0 | ~2000 (≈ 6.42 mM) |  |  |  |  | 
CC(C)OC(=O)[C@H](CCC(=O)C=[N+]=[N-])NC(=O)CN(C)C [Compound 5d, Isopropyl (S)-6-diazo-2-(2-(dimethylamino)acetamido)-5-oxohexanoate] | 76 ± 0 |  | 2 | 98 ± 2 |  |  | 
CC(C)OC(=O)[C@H](CCC(=O)C=[N+]=[N-])NC(=O)c1cccnc1 [Compound 5f, Isopropyl (S)-6-diazo-2-(nicotinamido)-5-oxohexanoate] | 0 ± 0 | ~5000 (≈ 15.7 mM) |  |  |  |  | 
CC(=O)N[C@@H](CCC(=O)C=[N+]=[N-])C(=O)OC(C)(C)C [Compound 5g, tert-Butyl (S)-2-acetamido-6-diazo-5-oxohexanoate] | 2 ± 0 |  | 1 | 93 ± 1 |  |  | 
CC(C)(C)OC(=O)[C@H](CCC(=O)C=[N+]=[N-])NC(=O)c1cccnc1 [Compound 5j, tert-Butyl (S)-6-diazo-2-(nicotinamido)-5-oxohexanoate] | 78 ± 1 | ~4000 (≈ 12 mM) |  | 104 ± 0 |  |  | 
COCCOCCOC(=O)[C@H](CCC(=O)C=[N+]=[N-])NC(C)=O [Compound 5m, 2-(2-Methoxyethoxy)ethyl (S)-2-acetamido-6-diazo-5-oxohexanoate] | 57 ± 0 |  | 5 | 87 ± 2 |  |  | 
Cn1cc(C[C@H](NC(=O)OC2CN3CCC2CC3)C(=O)N[C@@H](CCC(=O)C=[N+]=[N-])C(=O)OC(C)(C)C)c2ccccc21 (stereo partly drawn) [Compound 12d, tert-Butyl (2S)-6-diazo-2-((2S)-3-(1-methyl-1H-indol-3-yl)-2-(((quinuclidin-3-yloxy)carbonyl)amino)propanamido)-5-oxohexanoate] | 89 ± 1 |  |  |  | 88 ± 2 (Ces1KO) % | 10 ± 2 (MP) % | 65.59
CN(C)CC(=O)NCCC(=O)N[C@@H](CCC(=O)C=[N+]=[N-])C(=O)OC(C)(C)C [Compound 25a, tert-Butyl (S)-6-diazo-2-(3-(2-(dimethylamino)acetamido)propanamido)-5-oxohexanoate] | 99 ± 1 |  | 16 | 92 ± 4 |  |  | 
CNC(=O)[C@H](CCC(=O)C=[N+]=[N-])NC(=O)[C@H](Cc1c[nH]c2ccccc12)NC(C)=O [Compound 31b, (S)-2-((S)-2-Acetamido-3-(1H-indol-3-yl)propanamido)-6-diazo-N-methyl-5-oxohexanamide] | 103 ± 4 |  | 1 | 90 ± 2 |  |  | 

Further lines, with some results ahead:

Liver stability (% remaining at 60 min) [1] [%] | solubility (Solubility) [µg/mL] | Efflux (Efflux) | Gut Stability (% remaining at 60 min) [2] [%] | Compound | Plasma Stability (% remaining at 60 min) [3] | Plasma Stability (% remaining at 60 min) [4] | Efflux (Efflux; not told)
97 ± 0 |  | 1 | 110 ± 2 | CC(C)(C)OC(=O)[C@H](CCC(=O)C=[N+]=[N-])NC(=O)C(Cl)Cl [Compound 5i, tert-Butyl (S)-6-diazo-2-(2,2-dichloroacetamido)-5-oxohexanoate] |  |  | 
0 ± 0 |  | 49 |  | CC(C)OC(=O)[C@H](CCC(=O)C=[N+]=[N-])NC(=O)[C@H](Cc1c[nH]c2ccccc12)NC(=O)C(Cl)Cl [Compound 8n, Isopropyl (S)-6-diazo-2-((S)-2-(2,2-dichloroacetamido)-3-(1H-indol-3-yl)propanamido)-5-oxohexanoate] | 69 ± 3 (ces1KO) % |  | 
95 ± 3 |  | 41 | 88 ± 4 | CC(=O)N[C@@H](Cc1c[nH]c2ccccc12)C(=O)N[C@@H](CCC(=O)C=[N+]=[N-])C(=O)OC(C)(C)C [Compound 11a, tert-Butyl (S)-2-((S)-2-acetamido-3-(1H-indol-3-yl)propanamido)-6-diazo-5-oxohexanoate] |  | 62 ± 1 (MP) % | 
80 ± 2 |  | 106 | 95 ± 1 | CC(C)(C)OC(=O)[C@H](CCC(=O)C=[N+]=[N-])NC(=O)[C@H](Cc1c[nH]c2ccccc12)NC(=O)CN1CCOCC1 [Compound 11c, tert-Butyl (S)-2-((S)-3-(1H-indol-3-yl)-2-(2-morpholinoacetamido)propanamido)-6-diazo-5-oxohexanoate] |  |  | 
75 ± 1 |  | 80 | 104 ± 2 | CN(C)CC(=O)N[C@@H](Cc1cn(C)c2ccccc12)C(=O)N[C@@H](CCC(=O)C=[N+]=[N-])C(=O)OC(C)(C)C [Compound 12a, tert-Butyl (S)-6-diazo-2-((S)-2-(2-(dimethylamino)acetamido)-3-(1-methyl-1H-indol-3-yl)propanamido)-5-oxohexanoate] |  |  | 
95 ± 1 |  | 32 | 99 ± 2 | C[C@H](NC(=O)CN(C)C)C(=O)N[C@@H](CCC(=O)C=[N+]=[N-])C(=O)OC(C)(C)C [Compound 13a, tert-Butyl (S)-6-diazo-2-((S)-2-(2-(dimethylamino)acetamido)propanamido)-5-oxohexanoate] |  |  | 
100 ± 1 |  | 15 | 96 ± 1 | CC(C)(C)OC(=O)[C@H](CCC(=O)C=[N+]=[N-])NC(=O)CNC(=O)CN1CCOCC1 [Compound 14c, tert-Butyl (S)-6-diazo-2-(2-(2-morpholinoacetamido)acetamido)-5-oxohexanoate] |  |  | 
87 ± 0 |  | 45 | 87 ± 1 | CC(C)C[C@H](NC(=O)CN(C)C)C(=O)N[C@@H](CCC(=O)C=[N+]=[N-])C(=O)OC(C)(C)C [Compound 16a, tert-Butyl (S)-6-diazo-2-((S)-2-(2-(dimethylamino)acetamido)-4-methylpentanamido)-5-oxohexanoate] |  |  | 
0 ± 0 |  | 21 |  | COC(=O)[C@H](CCC(=O)C=[N+]=[N-])NC(=O)[C@H](Cc1c[nH]c2ccccc12)NC(=O)CN(C)C [Compound 28a, Methyl (S)-6-diazo-2-((S)-2-(2-(dimethylamino)acetamido)-3-(1H-indol-3-yl)propanamido)-5-oxohexanoate] |  |  | 
2 ± 0 |  | 10 |  | [2H]C([2H])([2H])OC(=O)[C@H](CCC(=O)C=[N+]=[N-])NC(=O)[C@H](Cc1c[nH]c2ccccc12)NC(C)=O [Compound 28b, Methyl-d3 (S)-2-((S)-2-acetamido-3-(1H-indol-3-yl)propanamido)-6-diazo-5-oxohexanoate] |  |  | 
1 ± 0 |  | 11 |  | CC(=O)N[C@@H](Cc1c[nH]c2ccccc12)C(=O)N[C@@H](CCC(=O)C=[N+]=[N-])C(=O)OC(CF)CF [Compound 28c, 1,3-Difluoropropan-2-yl (S)-2-((S)-2-acetamido-3-(1H-indol-3-yl)propanamido)-6-diazo-5-oxohexanoate] |  |  | 
